Activity calls are given as the source filed them.
Tests used:
[1] = non-specific 3'UTR reporter inhibition in Clone20-Shn3RL – cell-based, Renilla luciferase, cherry-picked, counter-screen for Shn3 inhibitor project, dose response (AID 624133); type: functional
[2] = HIV-1 AD8 envelope cell-cell fusion blockers – cherry-pick, dose response (AID 652062); type: functional, cell-based;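 further: luciferase signal from cell-cell fusion driven by HIV-1 clade B AD8 Env; potency is for inhibitors of fusion seen as a drop in luminescence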
[3] = blockers of HIV-1 ZM109 envelope-driven cell-cell fusion – HeLa effector, CEM target cells, luciferase, cherry-pick, dose response (AID 652058); type: functional, cell-based;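 further: luciferase signal from HIV-1 Env mediated cell-cell fusion of effector and target cells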
[4] = loss of viability in HepG2 cells – cell-based, CellTiter-Glo, cherry-picked, cytotoxicity control for Shn3 inhibitor project, dose response (AID 624134); type: functional
[5] = reduction of Shn3 3'UTR-driven luciferase in osteoblasts – cell-based, Clone20 osteoblasts, firefly luciferase, cherry-picked, dose response (AID 624132); type: functional;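 further: firefly luciferase luminescence from reporter carrying the Shn3 3'UTR in osteoblasts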
[6] = biological target: T1, Polyadenylate-binding protein 1 (Homo sapiens, UniProt P11940); test: MLLE domain peptide-binding blockers, IC50 – biochemical, fluorescence polarization, FITC-PAM2 peptide, dose response (AID 602259); type: functional; conditions: read-out: IC50_Mean
[7] = biological target: T1, Polyadenylate-binding protein 1; test: MLLE binding blockers, Cy5 peptide tracer – biochemical, fluorescence polarization, Cy5-PAM2 peptide, secondary, miRNA deadenylation inhibitor project, dose response (AID 602260); type: functional; conditions: read-out: IC50_Mean
Large T antigen = Large T antigen (Simian virus 40, UniProt P03070); type: functional, Betapolyomavirus macacae;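 further: Confirmatory-stage PubChem screen for compounds that inhibit SV40 T antigen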
[8] = biological target: T2, Heat shock factor protein 1 (Mus musculus, UniProt P38532); test: enhancement of HSF1-driven luciferase signal – cell-based, NIH3T3, luminescence, dose retest, confirmation (AID 435004); type: functional;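 further: stress induced by proteasome inhibitor MG132 added 30 min after compound; luciferase reporter driven by HSF1 response element in NIH3T3 cells; actives raise luminescence as potentiators of the MG132 stress response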
T2 sequence (P38532 whole entry): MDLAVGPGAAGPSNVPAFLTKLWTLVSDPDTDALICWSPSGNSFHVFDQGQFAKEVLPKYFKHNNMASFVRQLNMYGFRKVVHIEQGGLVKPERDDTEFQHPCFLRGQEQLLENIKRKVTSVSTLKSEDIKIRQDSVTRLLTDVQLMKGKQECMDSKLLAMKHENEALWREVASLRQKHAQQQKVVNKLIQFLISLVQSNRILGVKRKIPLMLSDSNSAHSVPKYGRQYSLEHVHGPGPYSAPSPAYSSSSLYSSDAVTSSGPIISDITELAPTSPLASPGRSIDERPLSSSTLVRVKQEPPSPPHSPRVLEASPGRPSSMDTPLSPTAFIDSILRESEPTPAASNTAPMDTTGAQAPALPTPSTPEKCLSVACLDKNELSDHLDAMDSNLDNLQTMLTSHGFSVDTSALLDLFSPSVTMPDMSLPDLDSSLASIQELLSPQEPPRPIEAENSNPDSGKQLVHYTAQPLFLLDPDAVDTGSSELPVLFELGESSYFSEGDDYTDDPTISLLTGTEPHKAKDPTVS

[9] = biological target: T3, Ubiquitin-conjugating enzyme E2 N (Homo sapiens, UniProt P61088); type: functional;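 further: Dose-response confirmation in a TR-FRET assay detecting UBC13-driven polyubiquitin chain formation, inhibition measured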
T3 sequence (P61088 whole entry): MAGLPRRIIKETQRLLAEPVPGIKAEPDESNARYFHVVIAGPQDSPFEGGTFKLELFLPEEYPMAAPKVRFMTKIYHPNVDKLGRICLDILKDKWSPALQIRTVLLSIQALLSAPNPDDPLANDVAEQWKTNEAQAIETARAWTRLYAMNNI

cells = type: functional
[10] = blockers of HIV-1 envelope-mediated cell-cell fusion – cherry-pick, dose response (AID 652057); type: functional, cell-based
[11] = fluconazole-exposed Candida albicans growth modulators – fluorescence, retest, confirmation (AID 2467); type: functional, cell-based
[12] = NIH-3T3 fibroblast cytotoxicity, dose response, cytotoxicity control, cell-based, fluorescence, Alamar Blue, secondary assay (AID 2327); type: functional;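 further: NIH-3T3 mouse fibroblasts cultured with fluconazole at 8 µg/mL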

T1 sequence (P11940 whole entry, the tested form may be a part): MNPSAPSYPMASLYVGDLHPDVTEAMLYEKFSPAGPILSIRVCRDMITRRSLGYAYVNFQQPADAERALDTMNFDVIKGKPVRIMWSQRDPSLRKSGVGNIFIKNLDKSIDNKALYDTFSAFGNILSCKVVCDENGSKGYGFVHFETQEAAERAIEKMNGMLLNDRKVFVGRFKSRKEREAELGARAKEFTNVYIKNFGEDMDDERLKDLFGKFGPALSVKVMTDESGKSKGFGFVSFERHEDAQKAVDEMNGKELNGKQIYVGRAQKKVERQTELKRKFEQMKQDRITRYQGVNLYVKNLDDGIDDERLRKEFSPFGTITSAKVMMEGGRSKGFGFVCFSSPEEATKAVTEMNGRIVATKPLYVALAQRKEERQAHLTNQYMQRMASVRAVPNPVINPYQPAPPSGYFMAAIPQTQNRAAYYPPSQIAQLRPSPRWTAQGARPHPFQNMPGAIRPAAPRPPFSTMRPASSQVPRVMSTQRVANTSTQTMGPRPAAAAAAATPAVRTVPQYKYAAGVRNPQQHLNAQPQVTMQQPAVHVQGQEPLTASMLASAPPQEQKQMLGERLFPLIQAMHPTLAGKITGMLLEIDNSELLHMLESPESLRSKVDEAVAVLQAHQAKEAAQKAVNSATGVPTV
Sequence of Large T antigen (P03070 whole entry): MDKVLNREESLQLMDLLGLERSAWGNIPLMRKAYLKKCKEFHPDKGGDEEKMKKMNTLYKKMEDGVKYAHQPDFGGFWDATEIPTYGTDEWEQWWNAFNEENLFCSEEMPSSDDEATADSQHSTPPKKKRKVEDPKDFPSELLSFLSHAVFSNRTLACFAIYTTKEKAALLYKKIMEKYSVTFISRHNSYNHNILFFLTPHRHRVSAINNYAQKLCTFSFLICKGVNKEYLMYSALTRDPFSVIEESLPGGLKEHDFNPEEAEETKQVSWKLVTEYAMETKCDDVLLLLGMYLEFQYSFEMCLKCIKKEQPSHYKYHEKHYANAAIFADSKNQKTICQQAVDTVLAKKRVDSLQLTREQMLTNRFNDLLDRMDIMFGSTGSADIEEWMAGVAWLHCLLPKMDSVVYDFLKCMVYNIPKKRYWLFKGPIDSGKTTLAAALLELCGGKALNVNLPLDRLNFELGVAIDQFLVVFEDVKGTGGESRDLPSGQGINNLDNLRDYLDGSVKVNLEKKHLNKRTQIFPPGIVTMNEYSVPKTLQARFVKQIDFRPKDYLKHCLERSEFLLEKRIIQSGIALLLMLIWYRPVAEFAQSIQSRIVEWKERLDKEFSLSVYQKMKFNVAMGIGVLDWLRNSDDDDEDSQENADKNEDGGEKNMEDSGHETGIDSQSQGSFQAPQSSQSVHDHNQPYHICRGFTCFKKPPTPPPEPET

COc1ccccc1OCC(=O)c1[nH]c(C)c(C(C)=O)c1C
AC50 [1]: 3.81 µM (active) | AC50 [2]: 46.4 µM (active) | AC50 [3]: 2.13 µM (active) | AC50 [4]: > 70 µM (inactive) | AC50 [5]: 3.35 µM (active)

COc1cc2[nH]c(=S)n(NC(=O)c3ccccc3)c(=O)c2cc1OC
IC50 [6]: > 66 µM (inactive) | IC50 [7]: > 66 µM (inactive)

C/C(=N\NC(=O)Cn1cc([N+](=O)[O-])cn1)c1ccc(O)cc1
IC50 (Large T antigen): 54.5 µM (active)

CC(C)c1ccc(C2CC(=O)N3CN(C)CSC3=C2C#N)cc1 (stereo not given)
IC50 (Large T antigen): 54.9 µM (active)

O=C1CC(c2ccccc2)CC(=O)C1Sc1ccc(Cl)cc1 (stereo not given)
IC50 [6]: > 66 µM (inactive) | IC50 [7]: > 66 µM (inactive)

CCOC(=O)C1CCCN(C(=O)c2sc3nc(C)nc(N(CC)CC)c3c2C)C1 (stereo not given)
EC50 [8]: > 260 µM (inactive)

CCCCOc1ccc(C(=O)N/N=C/c2c[nH]nc2-c2ccc(OC)c(OC)c2)cc1
EC50 [8]: > 260 µM (inactive)

Cn1c(=O)c2nc(COc3ccccc3)[nH]c2n(C)c1=O
IC50 [6]: 29.7 µM (inactive) | IC50 [7]: 33.5 µM (inactive)

c1ccc(C2(CN3CCNC[C@H]3Cc3cccc4ccccc34)CC2)cc1
IC50 [9]: > 20 µM (inactive)

O=Cc1c(NCc2ccco2)nc2ccccn2c1=O
IC50 (cells): 40.4 µM (active)

c1csc(CNc2ncnc3sccc23)c1
AC50 [1]: 4.77 µM (active) | AC50 [2]: 8.87 µM (active) | AC50 [10]: 39.4 µM (active) | EC50 [11]: 3.28 µM (active) | AC50 [3]: 46.1 µM (active) | EC50 [12]: > 160 µM (inconclusive) | AC50 [4]: 4.61 µM (active) | AC50 [5]: 1.8 µM (active)
